{
  "source": "patent US20240391964A1",
  "about": "“COMPOSITIONS AND METHODS FOR THE TREATMENT OF CANCER” (The University of Western Australia, priority 2020, published 2024)",
  "key": {"[1]": {"test_system": "SUM159 cells", "assay": "Cleaved caspase-3 immunoblot", "assay_type": "cell-based, human", "settings": "24 hours"}, "[2]": {"test_system": "T11 cells", "assay": "Cell viability assay of melittin variants, T11", "assay_type": "cell-based, murine", "settings": "t-test p=0.652", "procedure": "FIG. 5 presents the lack of anticancer activity of DEDE-melittin, and the breast cancer cell selectivity of the melittin fusion peptide RGD1-melittin. FIG. 5A presents cell viability assays of TNBC (SUM159) and HER2-enriched (SKBR3) cells treated with DEDE-melittin for 24 hours. FIG. 5B presents cell viability assays of T11 cells treated with melittin, RGD1-melittin, SV40-melittin, TAT-melittin and DEDE-melittin. FIG. 5C presents cell viability assays of human dermal fibroblasts (HDFa) and SUM159 treated with melittin (top) and RGD1-melittin (bottom) for 24 hours.\nTo assess the functional role of the positive (K21RKR24) sequence (SEQ ID NO: 4) in the C-terminus of melittin, a negatively charged melittin peptide (D21EDE24-melittin; SEQ ID NO: 6) was designed. These negative residues were predicted to disrupt the binding of melittin with the plasma membrane. […] However, the potency of melittin and SV40-melittin were greater than TAT-melittin, which could be due to the larger size of TAT."}, "[3]": {"test_system": "SUM159 cells", "assay": "Immunofluorescence subcellular localization with anti-melittin antibody", "assay_type": "cell-based, human", "settings": "30 minutes, IC50 concentrations"}, "[4]": {"test_system": "T11 cells", "assay": "Cell viability, combination with docetaxel", "assay_type": "cell-based, murine", "settings": "T11, 48 hours", "procedure": "FIG. 15 presents the results of cell viability assays of T11 breast cancer cells treated with melittin or RGD1-melittin alone and in combination with docetaxel for 48 hours. Representative plots of the combination treatments are presented as mean±SEM.\nThe murine p53 TNBC cell line T11 was treated with docetaxel in combination with either melittin or RGD1-melittin, and cell viability assays were conducted to determine the combination effect between the treatments (FIG. 15)."}, "[5]": {"test_system": "T11 cells", "assay": "Cell viability, combination with omomyc", "assay_type": "cell-based, murine", "settings": "T11, 24 hours", "procedure": "FIG. 16 presents the results of cell viability assays of T11 breast cancer cells treated with melittin or RGD1-melittin alone and in combination with omomyc for 24 hours. Representative plots of the combination treatments are presented as mean±SEM.\nThe murine p53 TNBC cell line T11 was treated with omomyc in combination with either melittin or RGD1-melittin, and cell viability assays were conducted to determine the combination effect between the treatments (FIG. 16)."}, "[6]": {"test_system": "COV362 cells", "assay_type": "cell-based", "procedure": "(§1) The OVCAR3 and COV362 ovarian cancer cell lines were treated with active RGD1-melittin and mutant RGD1-melittin (DEDE-RGD1-melittin). The COV362 cells were cultured in DMEM low glucose medium supplemented with 10% FBS. The OVCAR3 cells were grown in RPMI medium supplemented with 20% FBS. Cells were seeded overnight at a density of 5000 cells/p96-well plate and treated with active RGD1-melittin and mutant RGD1-melittin (RGD1-DEDE melittin), for 24 h at concentrations up to 20 µM. After treatments, cell viability was assessed using the CellTiter-Glo® assay according to the manufacturer's protocol (Promega; NSW, Australia). Luminescence signals were measured using the EnVision Multilabel Plate Reader (PerkinsElmer Inc.; Waltham, MA, USA). IC50s were calculated and transformed 95% confidence intervals provided by GraphPad Prism 6 software analysis (GraphPad Software Inc., San Diego, CA, USA)."}, "[7]": {"test_system": "OVCAR3 cells", "assay_type": "cell-based", "procedure": "as §1"}, "[8]": {"test_system": "Ki-67 and PD-L1 in T11, SUM159 and SKBR3 cells", "assay": "Immunofluorescence of Ki-67 and PD-L1", "assay_type": "cell-based", "settings": "24 h at IC50 concentrations, all three cell lines", "procedure": "The expression of PD-L1 of TNBC cells (T11 and SUM159) and HER2-enriched breast cancer cells (SKBR3) treated with active RGD1-melittin and mutant RGD1-melittin (DEDE RGD1-melittin) was measured using immunofluorescence.\nCells were seeded overnight on coverslips at a density of 3×105 in a p24-well plate coated with poly-L-lysine (Sigma-Aldrich) for 20 min and then washed twice with purified water. […] The cells were washed three times with PBS and then incubated with a goat α-mouse secondary Alexa Fluor 488-conjugated antibody (Thermo Fisher Scientific #A11001, 1:500) and Hoechst-33258 (1:5000) in PBS for 1 h at room temperature. After three more washes of PBS, the coverslip containing cells were mounted onto glass […] with SlowFade Diamond Antifade Mountant (Thermo Fisher Scientific). Slides were imaged using the confocal fluorescence Nikon Ti inverted microscope. Images were taken at 40× magnification and processed using ImageJ."}, "[9]": {"test_system": "PD-L1 in T11, SUM159 and SKBR3 cells", "assay": "qRT-PCR of PD-L1 expression", "assay_type": "cell-based", "settings": "24 h at IC50; p<0.005 T11, p<0.05 SUM159, p<0.005 SKBR3", "procedure": "The level of PD-L1 expression was also measured in T11, SUM159 and SKBR3 treated with active RGD1-melittin and mutant RGD1-melittin peptides, or vehicle treated only, using qRT-PCR.\nCells were seeded overnight at a density of 3×105 in a p6-well plate. […] Cells were washed once with PBS before RNA was extracted from the cells using QIAzol Lysis. Reagent (QIAGEN) according to manufacturer's instructions. 500 ng of purified total RNA was used as the template for cDNA synthesis using the High Capacity cDNA Reverse Transcription Kit (Applied Biosystems). Relative quantification of PD-L1 transcript expression was obtained by quantitative real-time PCR (qRT-PCR) using fluorescent TaqMan probes (Applied Biosystems) and run on the ViiA 7TM Real-Time PCR machine (Applied Biosystems). Data were analysed by QuantStudio Real-Time PCR Software (Applied Biosystems) and results were expressed as fold change compared to untreated cells, respectively, after normalization against the GAPDH mRNA levels."}, "[10]": {"test_system": "T11, OVCAR3, SUM159 and SKBR3 cells", "assay": "Cell viability, RGD1-melittin with docetaxel", "assay_type": "cell-based", "settings": "24 h, non-constant ratio", "procedure": "(§2) Cell viability assays of T11, OVCAR3, SUM159 and SKBR3 cells treated with RGD1-melittin alone and in combination with docetaxel were performed. Cells were seeded overnight at a density of 5000 cells/p96-well plate and treated with active RGD1-melittin alone or combined with docetaxel and administered at concentrations indicated in a non-constant ratio in the respective cell lines for 24 h. Cell viability was assessed using the CellTiter-Glo® assay.\n(§3) The combination effect for different fractions of cells impacted in each combination were calculated using the Chou and Talalay algorithm included in the freely available CompuSyn software. Combination index (CI)<1 means synergism, CI=1 means additive and CI>1 means antagonism."}, "[11]": {"test_system": "T11, OVCAR3 and COV362 cells", "assay": "Cell viability, RGD1-melittin with cisplatin", "assay_type": "cell-based", "settings": "24 h, non-constant ratio", "procedure": "as §2, with “T11, OVCAR3, and COV362” for “T11, OVCAR3, SUM159 and SKBR3”, “OVCAR3, and COV362 cells treated” for “SUM159 and SKBR3 cells treated”, “combination with cisplatin were performed.” for “combination with docetaxel were performed.”\nas §3"}, "[12]": {"test_system": "SUM159 cells", "settings": "24 hours, mean±SEM"}},
  "data": [
    {"smiles": "CC[C@H](C)[C@H](NC(=O)CNC(=O)[C@H](CCCCN)NC(=O)[C@H](CCCCN)NC(=O)[C@H](CC(C)C)NC(=O)[C@H](CCCNC(=N)N)NC(=O)CNC(=O)[C@H](CC(C)C)NC(=O)[C@H](CC(=O)O)NC(=O)CNC(=O)[C@H](CCCNC(=N)N)NC(=O)CNC(=O)[C@@H](N)Cc1c[nH]cn1)C(=O)NCC(=O)N[C@@H](C)C(=O)N[C@H](C(=O)N[C@@H](CC(C)C)C(=O)N[C@@H](CCCCN)C(=O)N[C@H](C(=O)N[C@@H](CC(C)C)C(=O)N[C@H](C(=O)N[C@H](C(=O)NCC(=O)N[C@@H](CC(C)C)C(=O)N1CCC[C@H]1C(=O)N[C@@H](C)C(=O)N[C@@H](CC(C)C)C(=O)N[C@H](C(=O)N[C@@H](CO)C(=O)N[C@@H](Cc1c[nH]c2ccccc12)C(=O)N[C@H](C(=O)N[C@@H](CCCCN)C(=O)N[C@@H](CCCNC(=N)N)C(=O)N[C@@H](CCCCN)C(=O)N[C@@H](CCCNC(=N)N)C(=O)N[C@@H](CCC(N)=O)C(=O)N[C@@H](CCC(N)=O)C(=O)O)[C@@H](C)CC)[C@@H](C)CC)[C@@H](C)O)[C@@H](C)O)C(C)C)C(C)C", "note": "[RGD1-melittin]", "values": [
      {"measurement": "induction of apoptosis (cleaved caspase-3)", "setting": "[1]", "result": "confirmed the anticancer activity"},
      {"measurement": "IC50 compared to parental melittin", "setting": "[2]", "result": "not significantly different compared to parental melittin"},
      {"measurement": "subcellular localization / anti-melittin staining", "setting": "[3]", "result": "distinctively targeted to the plasma membrane alone"},
      {"measurement": "combination effect with docetaxel on cell viability", "setting": "[4]", "result": "beneficial effect when combined with docetaxel"},
      {"measurement": "combination effect with omomyc on cell viability", "setting": "[5]", "result": "beneficial effect when combined with omomyc"},
      {"measurement": "fold lower IC50 than active melittin", "setting": "[6]; COV362", "result": "approximately 3.7 fold"},
      {"measurement": "IC50", "setting": "[6]; COV362, 24 h", "result": 2100, "unit": "nM"},
      {"measurement": "fold lower IC50 than active melittin", "setting": "[7]; OVCAR3", "result": "approximately 6 fold"},
      {"measurement": "IC50", "setting": "[7]; OVCAR3, 24 h", "result": 3360, "unit": "nM"},
      {"measurement": "PD-L1 expression (immunofluorescence)", "setting": "[8]", "result": "reduced"},
      {"measurement": "cell proliferation (Ki-67)", "setting": "[8]", "result": "reduced"},
      {"measurement": "level of PD-L1 (qRT-PCR)", "setting": "[9]", "result": "significantly reduce"},
      {"measurement": "sensitization to docetaxel (cell viability, combination index)", "setting": "[10]", "result": "significantly sensitized all four tested cell lines to docetaxel"},
      {"measurement": "sensitization to cisplatin (cell viability, combination index)", "setting": "[11]", "result": "significantly sensitized all three tested cell lines to cisplatin"},
      {"measurement": "ratio of the IC50s of HDFa/SUM159", "setting": "[12]", "result": "2.73±0.14"}
    ]}
  ]
}
